In patent US20060094744A1, “Pharmaceutical dosage forms of stable amorphous rapamycin like compounds” (priority 2004, published 2006):

Test: Differential scanning calorimetry of amorphous sirolimus (glass transition temperature)
Assay type: physicochemical
Settings: DSC, TA-Instruments Q1000 MTDSC, approximately 3 mg, heating rate 2° C./min; higher Tg is said to mean a more stable amorphous material
Procedure: In another test, the amorphous sirolimus is analyzed utilizing differential scanning calorimetry. Essentially, the purpose of this test is to determine the glass transition temperature of the amorphous sirolimus. In this test, approximately 3 mg of amorphous sirolimus is transferred into a standard aluminum TA-Instrument sample pan and covered. The DSC curve is recorded on a TA-Instruments Q1000 MTDSC equipped with a RCS cooling unit. FIG. 2 illustrates a differential scanning calorimetry curve of amorphous sirolimus.

CO[C@H]1C[C@@H]2CC[C@@H](C)[C@@](O)(O2)C(=O)C(=O)N2CCCC[C@H]2C(=O)O[C@H]([C@H](C)C[C@@H]2CC[C@@H](O)[C@H](OC)C2)CC(=O)[C@H](C)/C=C(\C)[C@@H](O)[C@@H](OC)C(=O)[C@H](C)C[C@H](C)/C=C/C=C/C=C/1C [amorphous sirolimus, (3S,6R,7E,9R,10R,12R,14S,15E,17E,19E,21 S,23S, 26R,27R,34aS)-9, 10, 12, 13, 14,21,22,23,24,25,26,27,32,33,34, 34a-hexadecahydro-9,27-dihydroxy-3-[(1R)-2-[(1S,3R,4R)-4-hydroxy-3-methoxycyclohexyl]-1-methylethyl]-10,21-dimethoxy-6,8,12,14,20,26-hexamethyl-23,27-epoxy-3H-pyrido[2,1-c][1,4] oxaazacyclohentriacontine-1,5,11,28,29(4H,6H,31H)-pentone]
glass transition temperature: about 93 °C
